pKi: −log10 of the molar value.
Target: GST-Bcl-2 (Homo sapiens, UniProt P10415)
Experiment: Time Resolved-Fluorescence Resonance Energy Transfer (TR-FRET) Bcl-2 binding assay
Details: competition with F-Bak peptide probe (100 nM); GST-Bcl-2 1 nM; Tb-anti-GST 1 nM; 3 hours at room temperature; Wang's equation
Procedure: Determination of the utility of compounds having Formula (I) as binders to and inhibitors of anti-apoptotic Bcl-2 proteins was performed using the Time Resolved-Fluorescence Resonance Energy Transfer (TR-FRET) Assay. Tb-anti-GST antibody was purchased from Invitrogen (Catalog No. PV4216).
(§1) Representative compounds were serially diluted in dimethyl sulfoxide (DMSO) starting at 50 μM (2× starting concentration; 10% DMSO) and 10 μL were transferred into a 384-well plate. The samples are then mixed on a shaker for 1 minute and incubated for an additional 3 hours at room temperature. For each assay, the probe/antibody and protein/probe/antibody were included on each assay plate as negative and positive controls, respectively. Fluorescence was measured on the Envision (Perkin Elmer) using a 340/35 nm excitation filter and 520/525 (F-Bak peptide) and 495/510 nm (Tb-labeled anti-Histidine antibody) emission filters.
as §1, with “The” for “Representative compounds were serially diluted in dimethyl sulfoxide (DMSO) starting at 50 μM (2× starting concentration; 10% DMSO) and 10 μL were transferred into a 384-well plate. The”, “were” for “are”
The inhibition constant (Ki) is the dissociation constant of an enzyme-inhibitor complex or a protein/small molecule complex, wherein the small molecule is inhibiting binding of one protein to another protein. So a large Ki value indicates a low binding affinity and a small Ki value indicates a high binding affinity.

GST-Bcl-2, sequence (P10415 whole entry): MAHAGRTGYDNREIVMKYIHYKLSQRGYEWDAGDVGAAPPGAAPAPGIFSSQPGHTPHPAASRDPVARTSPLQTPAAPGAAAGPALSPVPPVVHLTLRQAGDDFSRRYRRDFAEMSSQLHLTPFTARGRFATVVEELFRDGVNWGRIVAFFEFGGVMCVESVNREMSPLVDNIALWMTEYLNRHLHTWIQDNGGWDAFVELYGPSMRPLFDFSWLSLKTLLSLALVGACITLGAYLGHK

## 2-[(6-amino-5-chloropyridin-3-yl)oxy]-4-(4-{[2-(4-chlorophenyl)-4,4-dimethylcyclohex-1-en-1-yl]methyl}piperazin-1-yl)-N-{[4-({[4-({[4-(methoxymethyl)cyclohexyl]methyl}amino)-3-nitrophenyl]sulfonyl}amino)-3-nitrophenyl]sulfonyl}benzamide [Example 454]
  pKi: 10.62

## CN1CCC(C)(Nc2ccc(S(=O)(=O)NC(=O)c3ccc(N4CCN(CC5=C(c6ccc(Cl)cc6)CC(C)(C)CC5)CC4)cc3Oc3ccccc3Cl)cc2[N+](=O)[O-])CC1 [Example 168, 2-(2-chlorophenoxy)-4-(4-{[2-(4-chlorophenyl)-4,4-dimethylcyclohex-1-en-1-yl]methyl}piperazin-1-yl)-N-({4-[(1,4-dimethylpiperidin-4-yl)amino]-3-nitrophenyl}sulfonyl)benzamide]
  pKi: 7.55

## CC1(C)CC(c2ccc(Cl)cc2)=C(CN2CCN(c3ccc(C(=O)NS(=O)(=O)c4ccc(OCC5(F)CCOCC5)c([N+](=O)[O-])c4)c(Oc4cc5cc[nH]c5cc4F)c3)CC2)CO1 [Example 297, 4-(4-{[4-(4-chlorophenyl)-6,6-dimethyl-5,6-dihydro-2H-pyran-3-yl]methyl}piperazin-1-yl)-2-[(6-fluoro-1H-indol-5-yl)oxy]-N-({4-[(4-fluorotetrahydro-2H-pyran-4-yl)methoxy]-3-nitrophenyl}sulfonyl)benzamide]
  pKi: > 11.00

## CC1(C)CCC(CN2CCN(c3ccc(C(=O)NS(=O)(=O)c4ccc(NC[C@H]5CC[C@H](C#N)CC5)c([N+](=O)[O-])c4)c(Oc4cnc(N)c(Cl)c4)c3)CC2)=C(c2ccc(Cl)cc2)C1 [Example 401, Trans-2-[(6-amino-5-chloropyridin-3-yl)oxy]-4-(4-{[2-(4-chlorophenyl)-4,4-dimethylcyclohex-1-en-1-yl]methyl}piperazin-1-yl)-N-[(4-{[(4-cyanocyclohexyl)methyl]amino}-3-nitrophenyl)sulfonyl]benzamide]
  pKi: 10.46

## CC1(C)CCC(CN2CCN(c3ccc(C(=O)NS(=O)(=O)c4ccc(OCC5(F)CCOCC5)c(Cl)c4)c(Oc4cc5cc[nH]c5cc4F)c3)CC2)=C(c2ccc(Cl)cc2)C1 [Example 412, N-({3-chloro-4-[(4-fluorotetrahydro-2H-pyran-4-yl)methoxy]phenyl}sulfonyl)-4-(4-{[2-(4-chlorophenyl)-4,4-dimethylcyclohex-1-en-1-yl]methyl}piperazin-1-yl)-2-[(6-fluoro-1H-indol-5-yl)oxy]benzamide]
  pKi: 8.95

## CC1(C)CC(c2ccc(Cl)cc2)=C(CN2CCN(c3ccc(C(=O)NS(=O)(=O)c4ccc(OCC5(F)CCOCC5)c(Cl)c4)c(Oc4cc5cc[nH]c5cc4F)c3)CC2)CO1 [Example 413, N-({3-chloro-4-[(4-fluorotetrahydro-2H-pyran-4-yl)methoxy]phenyl}sulfonyl)-4-(4-{[4-(4-chlorophenyl)-6,6-dimethyl-5,6-dihydro-2H-pyran-3-yl]methyl}piperazin-1-yl)-2-[(6-fluoro-1H-indol-5-yl)oxy]benzamide]
  pKi: 9.13

## CC1(C)CCC(CN2CCN(c3ccc(C(=O)NS(=O)(=O)c4cnc(OC[C@H]5CC[C@H](O)CC5)c(Cl)c4)c(Oc4cc(F)cc5[nH]ncc45)c3)CC2)=C(c2ccc(Cl)cc2)C1 [Example 414, N-({5-chloro-6-[(trans-4-hydroxycyclohexyl)methoxy]pyridin-3-yl}sulfonyl)-4-(4-{[2-(4-chlorophenyl)-4,4-dimethylcyclohex-1-en-1-yl]methyl}piperazin-1-yl)-2-[(6-fluoro-1H-indazol-4-yl)oxy]benzamide]
  pKi: 10.85

## CC1(C)CCC(CN2CCN(c3ccc(C(=O)NS(=O)(=O)c4cnc(OCC5(F)CCOCC5)c(Cl)c4)c(Oc4cc(F)cc5[nH]ncc45)c3)CC2)=C(c2ccc(Cl)cc2)C1 [Example 415, N-({5-chloro-6-[(4-fluorotetrahydro-2H-pyran-4-yl)methoxy]pyridin-3-yl}sulfonyl)-4-(4-{[2-(4-chlorophenyl)-4,4-dimethylcyclohex-1-en-1-yl]methyl}piperazin-1-yl)-2-[(6-fluoro-1H-indazol-4-yl)oxy]benzamide]
  pKi: 10.89

## CC(C)(C)OC(=O)N1CCC(c2ccc(Cl)cc2)=C(CN2CCN(c3ccc(C(=O)NS(=O)(=O)c4cnc(OCC5(F)CCOCC5)c(Cl)c4)c(Oc4cc5cc[nH]c5cc4F)c3)CC2)C1 [Example 416, tert-butyl 5-[(4-{4-[({5-chloro-6-[(4-fluorotetrahydro-2H-pyran-4-yl)methoxy]pyridin-3-yl}sulfonyl)carbamoyl]-3-[(6-fluoro-1H-indol-5-yl)oxy]phenyl}piperazin-1-yl)methyl]-4-(4-chlorophenyl)-3,6-dihydropyridine-1(2H)-carboxylate]
  pKi: 8.13

## O=C(NS(=O)(=O)c1cnc(OCC2(F)CCOCC2)c(Cl)c1)c1ccc(N2CCN(CC3=C(c4ccc(Cl)cc4)CCN(C(CF)CF)C3)CC2)cc1Oc1cc2cc[nH]c2cc1F [Example 417, N-({5-chloro-6-[(4-fluorotetrahydro-2H-pyran-4-yl)methoxy]pyridin-3-yl}sulfonyl)-4-(4-{[4-(4-chlorophenyl)-1-(1,3-difluoropropan-2-yl)-1,2,5,6-tetrahydropyridin-3-yl]methyl}piperazin-1-yl)-2-[(6-fluoro-1H-indol-5-yl)oxy]benzamide]
  pKi: 8.16

## CC1(C)CCC(CN2CCN(c3ccc(C(=O)NS(=O)(=O)c4ccc(NCC5(F)CCOCC5)c([N+](=O)[O-])c4)c(Oc4cc(F)cc5[nH]ncc45)c3)CC2)=C(c2ccc(Cl)cc2)C1 [Example 418, 4-(4-{[2-(4-chlorophenyl)-4,4-dimethylcyclohex-1-en-1-yl]methyl}piperazin-1-yl)-2-[(6-fluoro-1H-indazol-4-yl)oxy]-N-[(4-{[(4-fluorotetrahydro-2H-pyran-4-yl)methyl]amino}-3-nitrophenyl)sulfonyl]benzamide]
  pKi: > 11.00

## CC1(C)CCC(CN2CCN(c3ccc(C(=O)NS(=O)(=O)c4cnc(OC[C@H]5CC[C@H](O)CC5)c(Cl)c4)c(Oc4ccc(F)c5[nH]ncc45)c3)CC2)=C(c2ccc(Cl)cc2)C1 [Example 419, N-({5-chloro-6-[(trans-4-hydroxycyclohexyl)methoxy]pyridin-3-yl}sulfonyl)-4-(4-{[2-(4-chlorophenyl)-4,4-dimethylcyclohex-1-en-1-yl]methyl}piperazin-1-yl)-2-[(7-fluoro-1H-indazol-4-yl)oxy]benzamide]
  pKi: 10.92

## CC1(C)CCC(CN2CCN(c3ccc(C(=O)NS(=O)(=O)c4cnc(OCC5(F)CCOCC5)c(Cl)c4)c(Oc4ccc(F)c5[nH]ncc45)c3)CC2)=C(c2ccc(Cl)cc2)C1 [Example 420, N-({5-chloro-6-[(4-fluorotetrahydro-2H-pyran-4-yl)methoxy]pyridin-3-yl}sulfonyl)-4-(4-{[2-(4-chlorophenyl)-4,4-dimethylcyclohex-1-en-1-yl]methyl}piperazin-1-yl)-2-[(7-fluoro-1H-indazol-4-yl)oxy]benzamide]
  pKi: > 11.00

## CC1(C)CCC(CN2CCN(c3ccc(C(=O)NS(=O)(=O)c4ccc(NCC5CN(C6COC6)CCO5)c([N+](=O)[O-])c4)c(Oc4cnc(N)c(Cl)c4)c3)CC2)=C(c2ccc(Cl)cc2)C1 (centres unmarked) [Example 421, 2-[(6-amino-5-chloropyridin-3-yl)oxy]-4-(4-{[2-(4-chlorophenyl)-4,4-dimethylcyclohex-1-en-1-yl]methyl}piperazin-1-yl)-N-{[3-nitro-4-({[4-(oxetan-3-yl)morpholin-2-yl]methyl}amino)phenyl]sulfonyl}benzamide]
  pKi: > 11.00

## CC1(C)CCC(CN2CCN(c3ccc(C(=O)NS(=O)(=O)c4ccc(NCC5CN(C6COC6)CCO5)c([N+](=O)[O-])c4)c(Oc4cc5cc[nH]c5cc4F)c3)CC2)=C(c2ccc(Cl)cc2)C1 (centres unmarked) [Example 422, 4-(4-{[2-(4-chlorophenyl)-4,4-dimethylcyclohex-1-en-1-yl]methyl}piperazin-1-yl)-2-[(6-fluoro-1H-indol-5-yl)oxy]-N-{[3-nitro-4-({[4-(oxetan-3-yl)morpholin-2-yl]methyl}amino)phenyl]sulfonyl}benzamide]
  pKi: > 11.00

## CC1(C)CCC(CN2CCN(c3ccc(C(=O)NS(=O)(=O)c4ccc(NCC5(F)CCOCC5)c([N+](=O)[O-])c4)c(Oc4ccc(F)c5[nH]ncc45)c3)CC2)=C(c2ccc(Cl)cc2)C1 [Example 423, 4-(4-{[2-(4-chlorophenyl)-4,4-dimethylcyclohex-1-en-1-yl]methyl}piperazin-1-yl)-2-[(7-fluoro-1H-indazol-4-yl)oxy]-N-[(4-{[(4-fluorotetrahydro-2H-pyran-4-yl)methyl]amino}-3-nitrophenyl)sulfonyl]benzamide]
  pKi: > 11.00

## CC1(C)CCC(CN2CCN(c3ccc(C(=O)NS(=O)(=O)c4cnc(OCC5CCC(C)(O)CC5)c(Cl)c4)c(Oc4cc(F)cc5[nH]ncc45)c3)CC2)=C(c2ccc(Cl)cc2)C1 (stereo not drawn) [Example 424, N-({5-chloro-6-[(trans-4-hydroxy-4-methylcyclohexyl)methoxy]pyridin-3-yl}sulfonyl)-4-(4-{[2-(4-chlorophenyl)-4,4-dimethylcyclohex-1-en-1-yl]methyl}piperazin-1-yl)-2-[(6-fluoro-1H-indazol-4-yl)oxy]benzamide]
  pKi: > 11.00

— patent US9029404B2, “Apoptosis-inducing agents for the treatment of cancer and immune and autoimmune diseases” (AbbVie Inc., priority 2008, dated 2015)
